Source: patent US7538129B2, “Diazonamide A analog” (Board of Regents, The University of Texas System, priority 2005, dated 2009)
Several values for one entry are separate records, joined by “and”; a condition that tells them apart may be missing. Identical values can stand only once. Entries after “also recorded” stand apart in the source; their conditions may differ.

How the values were obtained:
HCT116 xenografts = experiment: growth inhibition of HCT116 xenografts; type: in vivo, mice; details: for #Tumor Free (day) / % Max T/C / Log10 Tumor Cell Kill: HCT116 (colon)
Procedure: Details of the preparation of murine models containing xenografts of HCT116 cells or PC-3 cells are described in the section following these examples. After the tumors were grown, therapy utilizing Compound J or paclitaxel was initiated. […] In FIG. 4A, the *'s represent control mice, the squares represent 5 mg/kg Compound J; the diamonds represent 20 mg/kg Compound J; and the slanted line represents 20 mg/kg paclitaxel.
The details of the protocol for Examples 19 and 20 are as follows:
• PC3 prostrate tumor cells and HCT116 colon tumor cells (acquired from the tumor repository Division of Cancer Treatment and Diagnosis (DCTD) of the NCI • Complete RPMI Media • RPMI (Cat# 11875-085, Invitrogen) • 10% Heat-inactivated (30′ 56° C.) Fetal Bovine Serum (Cat# 100-106, Gemini Bio-Products • 2 mM L-glutamine (Cat# 25030-081, Invitrogen) • 0.1 mM MEM Non-Essential Amino Acids Solution (Cat#11140-050, Invitrogen) • 10 U/ml Penicillin/10 μg/ml Streptomycin (Cat#15140-122, Invitrogen) • 1 mM Sodium Pyruvate (Cat#l 1360-070) • Trypsin-EDTA (Cat#25300-054, Invitrogen) • Ca^2+/Mg^2+-free Phosphate Buffered Saline, 5% dextrose in water • Cell Culture Dish 150 mm×25 mm (Cat# 430599, Coming, Inc.) • 10 and 25 ml pipets, standard pipet-aid, p200 and p1000 pipette tips and standard pipetmen • Athymic NCr-nu/nu nude mice at 6-12 weeks of age, either sex (Strain code: 01B74, NCI Frederick Animal Production Program—suppliers include Charles River Labs and Taconic Farms). Female mice of approximately 7 weeks of age were utilized for existing experiments. • Standard 1 cc tuberculin syringe, 30G½ and 25G⅝ needles (Becton Dickinson) • Falcon 5 ml tubes (Cat#352054) • 50 and 15 ml disposable plastic conical tubes (Falcon or similar vendor) • Trypan Blue Solution (0.4%) (Cat#T8154, Sigma) • Hausser phase contrast hemacytometer (Cat# 02-671-54, Fisher) • Ice bucket • Balance for weighing mice (accurate to 0.2 g) • Vernier calipers • Vivarium facility free from known pathogens (nude mice should be housed in isolation from conventional mice if possible—separate rooms or micro-isolator cages equipped with individual air flow; all animal housing, bedding, water should be autoclaved prior to use; standard irradiated mouse chow should be used; animals should be changed out of cages within laminar flow hood; investigators handling mice should be suitably garbed—disposable gown, bonnet, booties, gloves, mask) • AB-5 (Compound J) compound • Ethyl alcohol, 200 proof (Aaper, MFD 041205) • Cremaphor (Cat# C5135, Sigma) • Paclitaxel (Cat#ANP0010, Polymed Therapeutics) Procedure: • 1) Rapidly thaw PC3 or HCT116 cells (if necessary) in 37° C. water bath. Transfer contents to 9ml complete RPMI media. Spin 5′ at 1200 rpm (240 Xg). Discard media and resuspend pellet in 8 ml complete RPMI media. Plate in 100 mm×25 mm cell culture dish in 5% CO2, 37° C. humidified incubator. • 2) Allow to grow for 5-10 days, splitting (aspirate media, wash with 3-5 ml PBS, add 1 ml trypsin-EDTA, incubate 3-5′ at 37° C., add media to desired volume and transfer to multiple plates) 1:8 to 1:10 every 3-4 days as necessary to allow cells to enter phase of logarithmic growth. • 3) When cells are growing well, begin to expand to 150 mm×25 mm dishes. We use 20 ml of media in a 150 mm dish and use 2 ml of trypsin for splitting. When nearly confluent, there should be 2×10^7 cells/150 mm dish. • 4) Plan ahead to time arrival of nu/nu mice such that they can acclimate to animal facility for 1 week prior to injection of tumor cells. […] Plan to inject 10 million cells/mouse and allow for loss of cells/volume during injection process. That is, if 30 mice are to be injected, plan to harvest cells sufficient for at least 35 injections—35×10 million cells=3.5×10^8 cells. In the existing HCT116 experiment, 7.5×10^6 cells were injected per mouse. Five mice per group were utilized for AB-5 treatment and four mice per group were utilized for the control and paclitaxel treatments. […]

[1] = system: melanoma tumor cell lines; experiment: growth inhibition (GI50) of tumor cell lines; type: cell-based; details: FIG. 1
Procedure: (§1) A number of tumor cell lines representing breast, lung, colon, ovarian and prostate cancer as well as melanoma were assayed under standard growth conditions in presence of varying amounts of diazonamide A, a hydroxylated form of Compound J, Compound J, paclitaxel and vinblastine. The results are graphed as the concentration that diminishes growth by a factor of two (GI50) in FIG. 1.

MDA-MB-231 = experiment: growth inhibition (GI50) of tumor cell lines; type: cell-based; details: MDA-MB-231, FIG. 1
Procedure: as §1

[2] = system: neutrophils in peripheral blood; experiment: neutrophil count in peripheral blood; type: in vivo, mice; details: for neutrophil count in peripheral blood, ANC (cell/ml): FIG. 5B
Excerpt: The details of the protocol for Examples 19 and 20 are as follows: […]

[3] = pharmacokinetics, intratumoral concentration after intravenous injection; type: in vivo; details: mice with MDA-MB-435 xenograft tumors
Procedure: Compound J was injected intravenously into mice containing xenograft tumors grown from MDA-MB-435 breast cancer cells. The intratumoral concentration of Compound J was measured as a function of time.

[4] = system: PTX10 ovarian tumor cell line; experiment: survival of PTX10 ovarian tumor cell line; type: cell-based; details: PTX10, FIG. 2
Excerpt: Additional experiments testing the effect of Compound J and paclitaxel on the survival of PTX10ovarian tumor cell line are shown in FIG. 2. […] In FIG. 2, the circles represent Compound J and the diamonds represent paclitaxel.

[5] = system: MDA-MB-435 (breast) xenografts; experiment: growth inhibition of MDA-MB-435 xenografts; type: in vivo, mice; details: 20 mg/kg, IP
SKMEL-2 = experiment: growth inhibition (GI50) of tumor cell lines; type: cell-based; details: SKMEL-2, FIG. 1
Procedure: as §1

[6] = system: ovarian cell line IGR-OV1; experiment: growth inhibition (GI50) of tumor cell lines; type: cell-based; details: IGR-OV1, FIG. 1
Procedure: as §1

For `CC(C)[C@H](O)C(=O)N[C@H]1Cc2ccc3c(c2)[C@]24C5=C(N=C(O5)[C@H](C(C)C)NC1=O)c1ncc(o1)-c1c[nH]c5cccc(c15)-c1cccc2c1NC4O3` (stereo in doubt) [Compound J], the “inhibition of growth of HCT116 xenografts” value (HCT116 xenografts; FIG. 4A, 20 mg/kg IV) was “comparable to paclitaxel; also recorded: slows tumor growth in a manner similar to paclitaxel”, the “#Tumor Free (day)” value (HCT116 xenografts; 5 mg/kg, IP) was 0/5 and the “% Max T/C” value (HCT116 xenografts; 5 mg/kg, IP) was 41.9%. The “Log10 Tumor Cell Kill” value (HCT116 xenografts; 5 mg/kg, IP) was 0.37, the “#Tumor Free (day)” value (HCT116 xenografts; 5 mg/kg, IV) was 0/5 and the “% Max T/C” value (HCT116 xenografts; 5 mg/kg, IV) was 26.5%. The “Log10 Tumor Cell Kill” value (HCT116 xenografts; 5 mg/kg, IV) was 0.54, the “#Tumor Free (day)” value (HCT116 xenografts; 20 mg/kg, IP) was 0/5 and the “% Max T/C” value (HCT116 xenografts; 20 mg/kg, IP) was 9.3%. For the same molecule, the “Log10 Tumor Cell Kill” value (HCT116 xenografts; 20 mg/kg, IP) was 1.0, the “% Max T/C” value (HCT116 xenografts; 20 mg/kg, IV) was 0.2% and the “Log10 Tumor Cell Kill” value (HCT116 xenografts; 20 mg/kg, IV) was 1.8. For the same molecule, the “animals free of tumors” value (HCT116 xenografts; free of tumors for over five months) was “four of 10”, the weight loss (HCT116 xenografts; tumor-free animals, over five months) was “no weight loss” and the “GI50 (concentration that diminishes growth by a factor of two)” value (from here on “GI50”) [1] was “less effective than the remaining drugs”. For the same molecule, the “GI50” value (MDA-MB-231) was “more effective than the remaining drugs”, the “neutrophil count in peripheral blood, ANC (cell/ml)” value (from here on “neutrophil count”) ([2]; 5 mg/kg) was “no effect; also recorded: not significantly affected” and the “neutrophil count” value ([2]; 20 mg/kg) was “no effect; also recorded: not significantly affected”. The “neutrophil proliferation or cell counts in vivo” value ([2]; FIG. 5B legend) was “no effect”, the “area under the curve” value [3] was 3010224 ng·min/mL and the half-life ([3]; mouse, tumor, read-out: terminal half-life) was 4.96 h. For the same molecule, the Vd ([3]; mouse, tumor, read-out: volume of distribution) was 2.9 L/kg, the “percentage of cells surviving (survival fraction against concentration)” value [4] was “more effective than paclitaxel” and the “#Tumor Free (day)” value [5] was 0/6. For the same molecule, the “% Max T/C” value [5] was 6.8% and 3.1%.

In the case of `CC(=O)O[C@H]1C(=O)[C@@]2(C)[C@H]([C@H](OC(=O)c3ccccc3)[C@]3(O)C[C@H](OC(=O)[C@H](O)[C@@H](NC(=O)c4ccccc4)c4ccccc4)C(C)=C1C3(C)C)[C@]1(OC(C)=O)CO[C@@H]1C[C@@H]2O` [paclitaxel, reference compound], the “% Max T/C” value (HCT116 xenografts; 20 mg/kg, IV) is reported as 0.2%, the “Log10 Tumor Cell Kill” value (HCT116 xenografts; 20 mg/kg, IV) is reported as 3.2 and the “GI50” value (SKMEL-2) is reported as “significantly less effective than the remaining four drugs”. For the same molecule, the “GI50” value [6] was “significantly less effective than the remaining four drugs”, the “neutrophil count” value ([2]; 5 mg/kg) was “reduction of neutrophil counts; also recorded: greatly lowered” and the “neutrophil count” value ([2]; 20 mg/kg) was “reduction of neutrophil counts; also recorded: greatly lowered”.
